Like-named read-outs stand apart in the source and are kept apart here.
Legend:
[1] = system: NRTI-, NNRTI- and PI-Resistant HIV-1 Mutants; assay: Antiviral activity against NRTI-, NNRTI- and PI-resistant HIV-1 mutants; type: cell-based; conditions: for EC50: Human immunodeficiency virus 1, WT, Table S7
HIV-1 BaL = conditions: primary CD4+ T-cells, 35 days, drug at tissue culture equivalent clinical Cmin (FTC 160 × EC50)
[2] = system: HIV-1 integration in MT-2 cells (HIV-1 IIIb); conditions: relative to DMSO; for Late reverse transcription products (fold change): HIV-1 IIIb-infected MT-2, compound >20-fold EC50, 12 h; for Alu-LTR integration junctions (fold change) / Integration failure of 2-LTR circles (fold change): HIV-1 IIIb-infected MT-2, compound >20-fold EC50, 24 h
Method: Quantification of 2-long terminal repeat (LTR) circles, late reverse transcription products, and integration junctions was adapted from a previously described method ([30]). […] Three hours after viral adsorption, the infected cells were washed twice with 20 ml of RPMI 1640 medium containing 10% FBS and antibiotics and seeded in 6-well plates in 2 ml of culture medium at 1 × 10^6 cells per well. […] These plates were incubated at 37°C for either 12 h (for late reverse transcription product quantification) or 24 h (for 2-LTR circle and Alu-LTR product quantification), after which time the cells were harvested for total DNA isolation. DNA was extracted from each well using the QIAamp DNA minikit (Qiagen, Valencia, CA) and collected as a 100-μl eluate. TaqMan real-time PCR-quantified 2-LTR junctions (2-LTR circles), late reverse transcription products, and integration junctions (Alu-LTR) were normalized to the level of host globin gene in each sample. Quantification by PCR was performed on the ViiA 7 real-time PCR system (Life Technologies, Grand Island, NY).

[3] = system: INSTI-resistant HIV-1 mutants (HXB2); assay: microbe, parasite or virus in culture; type: cell-based
[4] = system: inhibitor-selected HIV-1 IIIb passages; assay: Phenotypic profile of selected HIV-1 passages; type: cell-based; conditions: for EC50: Human immunodeficiency virus 1, IIIB
HIV-1 IIIb [5] = assay: Antiviral assay in MT-2 cells; type: cell-based; conditions: Human immunodeficiency virus 1, IIIB, MT2; Table S9 footnote b; read-out: EC50 previously determined (start of resistance selection at twice the EC50)
Method: For the antiviral assay utilizing MT-2 and MT-4 cells, 50 μl of a 2× test concentration of 5-fold serially diluted compound in culture medium with 10% FBS was added to each well of a 96-well plate (9 concentrations) in triplicate. MT-2 and MT-4 cells were infected with HIV-1 IIIb at a multiplicity of infection (MOI) of 0.01 for 3 h. Fifty microliters of infected cell suspension in culture medium with 10% FBS (∼1.5 × 10^4 cells) then was added to each well containing 50 μl of diluted compound. The plates were then incubated at 37°C for 5 days. After 5 days of incubation, 100 μl of CellTiter-Glo reagent (Promega Biosciences, Inc., Madison, WI) was added to each well containing MT-2 or MT-4 cells. Cell lysis was carried out by incubation at room temperature for 10 min and chemiluminescence was read. For compound cytotoxicity assessment, the protocol was identical except that uninfected cells were used and compounds were serially diluted 3-fold.

HIV-1 IIIb [6] = assay: HIV breakthrough selection in MT-2 cells; conditions: MT-2, HIV-1 IIIb; FTC 4× EC95, EVG 5× EC95, BIC and DTG 2.5× and 5× EC95; up to day 32
[7] = Cytotoxicity in AD38 cells; conditions: human
HBV Production = assay: microbe, parasite or virus in culture; conditions: Hepatitis B virus
in vitro = conditions: human, CC50 in Primary Human Hepatocytes
[8] = 480 h, selected virus EVG P2 (day 20, 7.2 nM)
[9] = selected virus BIC P3 (day 47, 6 nM)
[10] = selected virus BIC P5 (day 71, 12 nM)
[11] = selected virus BIC P6 (day 86, 24 nM)
[12] = selected virus BIC P8 (day 156, 96 nM)
[13] = selected virus BIC P9 (day 181, 192 nM)
[14] = selected virus BIC P10 (day 234, 384 nM)
[15] = selected virus DTG P3Lo (day 59, 6.4 nM)
[16] = selected virus DTG P4 (day 87, 9.6 nM)
[17] = selected virus DTG P5 (day 97, 14.4 nM)
[18] = selected virus DTG P7 (day 139, 32.4 nM)
[19] = selected virus DTG P9 (day 174, 72.9 nM)
[20] = selected virus DTG P10 (day 202, 109.4 nM)
[21] = selected virus EVG P4 (day 41, 28.8 nM)
[22] = selected virus EVG P6 (day 56, 115 nM)
[23] = selected virus EVG P7 (day 67, 230 nM)
[24] = selected virus EVG P9 (day 94, 922 nM)
[25] = selected virus EVG P10 (day 119, 1843 nM)

COC(=O)N[C@H](C(=O)N[C@@H](Cc1ccccc1)[C@@H](O)CN(Cc1ccc(-c2ccccn2)cc1)NC(=O)[C@@H](NC(=O)OC)C(C)(C)C)C(C)(C)C [ATV, atazanavir]
EC50 [1]: 1.6 ± 0.9 nM
Frequency of Viral Breakthrough with RAMs (HIV-1 BaL): 0%
p24+ Wells (HIV-1 BaL): 0/24

CC(C)CN(C[C@@H](O)[C@H](Cc1ccccc1)NC(=O)O[C@H]1CO[C@H]2OCC[C@H]21)S(=O)(=O)c1ccc(N)cc1 [DRV, darunavir]
EC50 [1]: 3.5 ± 1.6 nM
Late reverse transcription products (fold change) [2]: 0.96 ± 0.11 fold change
Alu-LTR integration junctions (fold change) [2]: 0.72 ± 0.31 fold change
Integration failure of 2-LTR circles (fold change) [2]: 0.57 ± 0.24 fold change

O=C1Nc2ccc(Cl)cc2[C@@](C#CC2CC2)(C(F)(F)F)O1 [EFV, efavirenz]
EC50 ([3]; Human immunodeficiency virus 1, HXB2, IN mutant E92Q): 1.5 ± 0.3 nM
EC50 ([3]; Human immunodeficiency virus 1, HXB2, IN mutant E92Q/N155H): 1.5 ± 0.4 nM
EC50 ([3]; Human immunodeficiency virus 1, HXB2, IN mutant E138K/Q148K): 1.9 ± 0.4 nM
EC50 ([3]; Human immunodeficiency virus 1, HXB2, IN mutant G140S/Q148R): 1.5 ± 0.3 nM
EC50 ([3]; Human immunodeficiency virus 1, HXB2, IN mutant M50I (BIC/DTG selection)): 1.1 ± 0.4 nM
EC50 ([3]; Human immunodeficiency virus 1, HXB2, IN mutant M50I/R263K (BIC selection)): 1 ± 0.3 nM
EC50 ([3]; Human immunodeficiency virus 1, HXB2, IN mutant M50I/S119R/R263K (DTG selection)): 3.2 ± 1.8 nM
EC50 ([3]; Human immunodeficiency virus 1, HXB2, IN mutant N155H): 1.6 ± 0.05 nM
EC50 ([3]; Human immunodeficiency virus 1, HXB2, IN mutant N155H/Q148R): 2.2 ± 0.8 nM
EC50 ([3]; Human immunodeficiency virus 1, HXB2, IN mutant Q148R): 1.7 ± 0.1 nM
EC50 ([3]; Human immunodeficiency virus 1, HXB2, IN mutant R263K (BIC/DTG selection), Table 7): 1 ± 0.4 nM
EC50 ([3]; Human immunodeficiency virus 1, HXB2, IN mutant R263K, Table 6): 1.8 ± 0.3 nM
EC50 ([3]; Human immunodeficiency virus 1, HXB2, IN mutant S119R (DTG selection)): 2.1 ± 1.1 nM
EC50 ([3]; Human immunodeficiency virus 1, HXB2, IN mutant S119R/R263K (DTG selection)): 2.1 ± 1 nM
EC50 ([3]; Human immunodeficiency virus 1, HXB2, IN mutant S153Y (DTG selection)): 2.2 ± 1.1 nM
EC50 ([3]; Human immunodeficiency virus 1, HXB2, IN mutant S153Y/R263K (DTG selection)): 2 ± 0.7 nM
EC50 ([3]; Human immunodeficiency virus 1, HXB2, IN mutant Y143R): 1.7 ± 0.1 nM
EC50 ([3]; Human immunodeficiency virus 1, HXB2, WT (HXB2), Table 6, read-out: EC50): 1.9 ± 0.3 nM
EC50 ([3]; Human immunodeficiency virus 1, HXB2, WT (HXB2), Table 7, read-out: EC50): 1.2 ± 0.4 nM
EC50 [1]: 1.2 ± 0.4 nM
EC50 Fold Change Relative to WT ([1]; NNRTI resistant L100I K103N): > 83 fold change
Late reverse transcription products (fold change) [2]: 0.21 ± 0.07 fold change
Alu-LTR integration junctions (fold change) [2]: 0.10 ± 0.05 fold change
Integration failure of 2-LTR circles (fold change) [2]: 0.05 ± 0.04 fold change
Fold-Resistance Relative to HIV-1 IIIb ([4]; HIV-1-IIIb (reference)): 1 fold
EC50 [4, 8]: 3 nM
EC50 ([4]; HIV-1-IIIb (unselected)): 1.6 nM
EC50 [4, 9]: 1.6 nM
EC50 [4, 10]: 1.2 nM
EC50 [4, 11]: 1.3 nM
EC50 [4, 12]: 1.7 nM
EC50 [4, 13]: 2.8 nM
EC50 [4, 14]: 2.7 nM
EC50 [4, 15]: 1.2 nM
EC50 [4, 16]: 1.8 nM
EC50 [4, 17]: 1.7 nM
EC50 [4, 18]: 2.3 nM
EC50 [4, 19]: 2.1 nM
EC50 [4, 20]: 2.8 nM
EC50 [4, 21]: 2.8 nM
EC50 [4, 22]: 2.4 nM
EC50 [4, 23]: 3.6 nM
EC50 [4, 24]: 3.2 nM
EC50 [4, 25]: 2 nM
Fold-Resistance Relative to HIV-1 IIIb ([4]; selected virus BIC P3): 1 fold
Fold-Resistance Relative to HIV-1 IIIb ([4]; selected virus BIC P5): 0.8 fold
Fold-Resistance Relative to HIV-1 IIIb ([4]; selected virus BIC P6): 0.8 fold
Fold-Resistance Relative to HIV-1 IIIb ([4]; selected virus BIC P8): 1.1 fold
Fold-Resistance Relative to HIV-1 IIIb ([4]; selected virus BIC P9): 1.8 fold
Fold-Resistance Relative to HIV-1 IIIb ([4]; selected virus BIC P10): 1.7 fold
Fold-Resistance Relative to HIV-1 IIIb ([4]; selected virus DTG P3Lo): 0.8 fold
Fold-Resistance Relative to HIV-1 IIIb ([4]; selected virus DTG P4): 1.1 fold
Fold-Resistance Relative to HIV-1 IIIb ([4]; selected virus DTG P5): 1.0 fold
Fold-Resistance Relative to HIV-1 IIIb ([4]; selected virus DTG P7): 1.4 fold
Fold-Resistance Relative to HIV-1 IIIb ([4]; selected virus DTG P9): 1.3 fold
Fold-Resistance Relative to HIV-1 IIIb ([4]; selected virus DTG P10): 1.8 fold
Fold-Resistance Relative to HIV-1 IIIb ([4]; selected virus EVG P2): 1.8 fold
Fold-Resistance Relative to HIV-1 IIIb ([4]; selected virus EVG P4): 1.7 fold
Fold-Resistance Relative to HIV-1 IIIb ([4]; selected virus EVG P6): 1.5 fold
Fold-Resistance Relative to HIV-1 IIIb ([4]; selected virus EVG P7): 2.2 fold
Fold-Resistance Relative to HIV-1 IIIb ([4]; selected virus EVG P9): 2.0 fold
Fold-Resistance Relative to HIV-1 IIIb ([4]; selected virus EVG P10): 1.2 fold
Frequency of Viral Breakthrough with RAMs (HIV-1 BaL): 17%
p24+ Wells (HIV-1 BaL): 2/12

COc1cc2c(cc1Cc1cccc(Cl)c1F)c(=O)c(C(=O)O)cn2[C@H](CO)C(C)C [EVG, elvitegravir]
EC50 [1]: 2.5 ± 1.5 nM
EC50 [4, 8]: 17.8 nM
EC50 ([4]; HIV-1-IIIb (unselected)): 2.1 nM
EC50 [4, 9]: 5.1 nM
EC50 [4, 10]: 8.3 nM
EC50 [4, 11]: 7.8 nM
EC50 [4, 12]: 33.6 nM
EC50 [4, 13]: 55 nM
EC50 [4, 14]: 33 nM
EC50 [4, 15]: 1.7 nM
EC50 [4, 16]: 5 nM
EC50 [4, 17]: 9.3 nM
EC50 [4, 18]: 15.5 nM
EC50 [4, 19]: 25.1 nM
EC50 [4, 20]: 69.2 nM
EC50 [4, 21]: 30.2 nM
EC50 [4, 22]: 48.9 nM
EC50 [4, 23]: 203 nM
EC50 [4, 24]: 296 nM
EC50 [4, 25]: 246 nM
EC50 (HIV-1 IIIb [5]): 1.8 nM
day postinfection of HIV-1 breakthrough (HIV-1 IIIb [6]): 22 days
Frequency of Viral Breakthrough with RAMs (HIV-1 BaL): 54%
p24+ Wells (HIV-1 BaL): 23/24

Nc1nc(=O)n([C@@H]2CS[C@H](CO)O2)cc1F [FTC, emtricitabine]
EC50 [1]: 385 ± 225 nM
EC50 Fold Change Relative to WT ([1]; NRTI resistant 6TAMs): 10.8 fold change
CC50 at 5 days [7]: > 50000 nM
EC50 (HBV Production): 20 nM
day postinfection of HIV-1 breakthrough (HIV-1 IIIb [6]): 7 days
Frequency of Viral Breakthrough with RAMs (HIV-1 BaL): 58%
p24+ Wells (HIV-1 BaL): 14/24

COc1ccc(C[C@H](N)C(=O)N[C@H]2[C@@H](O)[C@H](n3cnc4c(N(C)C)ncnc43)O[C@@H]2CO)cc1 [Puromycin]
CC50 (in vitro; Donor 1): 1200 nM
CC50 (in vitro; Donor 2): 830 nM

Cc1cc(/C=C/C#N)cc(C)c1Nc1ccnc(Nc2ccc(C#N)cc2)n1 [RPV, rilpivirine]
EC50 [1]: 0.8 ± 0.4 nM
EC50 Fold Change Relative to WT ([1]; NNRTI resistant L100I K103N): 21.9 fold change
Frequency of Viral Breakthrough with RAMs (HIV-1 BaL): 25%
p24+ Wells (HIV-1 BaL): 6/24

C[C@H](Cn1cnc2c(N)ncnc21)OCP(=O)(O)O [TFV, tenofovir]
EC50 [1]: 3720 nM
EC50 Fold Change Relative to WT ([1]; NRTI resistant 6TAMs): 7.1 fold change
CC50 at 5 days [7]: > 50000 nM
EC50 (HBV Production): 360 nM
